Where two headings read alike, the source gives them in different places.
Experiments:
[1] = system: rhythmic bladder contraction in rat; test: Test on rhythmic bladder contraction in rat (in vivo muscarinic antagonism); parameters: species or system Wistar female rats
[2] = system: salivary secretion in rat; test: Test on salivary secretion in rat (oxotremorine-induced); format: in vivo, Male Wistar rats
[3] = molecular target: T1, muscarinic M2 receptors (Rattus norvegicus, UniProt P10980); test: biochemical; format: binding, Wistar male rats
T1 sequence (P10980 1-466): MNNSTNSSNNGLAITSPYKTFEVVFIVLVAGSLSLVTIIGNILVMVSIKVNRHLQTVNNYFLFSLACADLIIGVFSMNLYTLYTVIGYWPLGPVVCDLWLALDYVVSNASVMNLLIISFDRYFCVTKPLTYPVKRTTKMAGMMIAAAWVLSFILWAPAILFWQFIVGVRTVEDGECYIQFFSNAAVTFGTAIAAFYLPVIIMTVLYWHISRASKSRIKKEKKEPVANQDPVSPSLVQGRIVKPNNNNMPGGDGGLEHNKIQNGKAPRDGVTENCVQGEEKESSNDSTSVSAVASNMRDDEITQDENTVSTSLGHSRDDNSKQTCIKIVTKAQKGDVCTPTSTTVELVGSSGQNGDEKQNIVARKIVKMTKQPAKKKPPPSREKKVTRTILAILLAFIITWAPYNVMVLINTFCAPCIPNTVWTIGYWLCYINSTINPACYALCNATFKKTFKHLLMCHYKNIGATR

[4] = molecular target: T2, Muscarinic M3 receptor (Rattus norvegicus, UniProt P08483); test: Muscarinic M3 receptor binding test (submandibular gland membranes, [3H]-N-methylscopolamine); parameters: species or system Wistar male rats
T2 construct: except that submandibular gland membranes were used and [^3H]-N-methylscopolamine was used as the labeled ligand; from tissue; host or cells: rat submandibular gland membranes (Wistar male rats, Nippon SLC)
T2 sequence (P08483 whole entry): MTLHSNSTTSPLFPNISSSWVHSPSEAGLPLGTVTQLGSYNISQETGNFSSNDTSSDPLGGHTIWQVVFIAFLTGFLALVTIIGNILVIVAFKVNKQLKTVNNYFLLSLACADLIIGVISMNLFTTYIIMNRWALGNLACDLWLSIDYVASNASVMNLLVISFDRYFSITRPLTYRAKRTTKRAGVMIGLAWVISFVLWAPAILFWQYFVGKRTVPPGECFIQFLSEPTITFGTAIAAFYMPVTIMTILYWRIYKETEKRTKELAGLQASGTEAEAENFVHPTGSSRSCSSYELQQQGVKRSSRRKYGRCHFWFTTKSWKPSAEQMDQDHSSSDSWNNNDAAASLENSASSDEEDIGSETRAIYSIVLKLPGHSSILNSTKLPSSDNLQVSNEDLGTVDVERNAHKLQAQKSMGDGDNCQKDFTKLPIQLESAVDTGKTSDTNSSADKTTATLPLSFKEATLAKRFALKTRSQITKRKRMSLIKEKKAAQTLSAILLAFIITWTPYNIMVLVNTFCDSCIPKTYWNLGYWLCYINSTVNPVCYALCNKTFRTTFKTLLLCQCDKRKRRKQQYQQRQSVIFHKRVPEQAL

[5] = system: bronchospasm in guinea pig; format: in vivo, Hartley male guinea pig
[6] = urethane anesthesia, cumulative i.v. administration, 30% inhibition of peak bladder contractions
[7] = oxotremorine 0.8 µmol/kg 15 minutes after compound, saliva of 5 minutes
[8] = read-out: Ki (nM) M2 binding Test
[9] = rat submandibular gland membranes, [3H]-N-methylscopolamine, read-out: Ki (nM) M3 binding Test
[10] = methacholine 5 µg/kg i.v., 3 minutes after compound i.v.

## 3-Quinuclidinyl N-[2-(2-cyclohexen-1-yl)phenyl]carbamate hemioxalate [Example 61]
[1]; [6]
  Rhythmic Bladder Contraction Test ED30 (mg/kg i.v.): 0.029 mg/kg i.v.
[2]; [7]
  Salivary Secretion Test ED50 (mg/kg i.v.): 0.14 mg/kg i.v.

## 3-quinuclidinyl N-[2-(1H-pyrrol-1-yl)phenyl]carbamate monohydrochloride [Example 2]
[3]; [8]
  Ki: 100 nM
[4]; [9]
  Ki: 4.89 nM
[4]; ratio of Ki M2 to Ki M3
  M2/M3: 20.4
[1]; [6]
  Rhythmic Bladder Contraction Test ED30 (mg/kg i.v.): 0.018 mg/kg i.v.
[2]; [7]
  Salivary Secretion Test ED50 (mg/kg i.v.): 0.11 mg/kg i.v.

## CN1[C@@H]2CC[C@H]1C[C@@H](OC(=O)C(CO)c1ccccc1)C2 (some centres unmarked) [Atropine, reference compound]
[5]; in vivo, iv
  Bronchospasm Test ID50 (mg/kg i.v.): 0.0008 mg/kg i.v.
[1]; in vivo, iv
  Rhythmic Bladder Contraction Test ED30 (mg/kg i.v.): 0.009 mg/kg i.v.
[2]; in vivo, iv
  Salivary Secretion Test ED50 (mg/kg i.v.): 0.0084 mg/kg i.v.

## Cl.O=C(Nc1ccccc1-c1ccccc1)OC1CN2CCC1CC2 (centres unmarked) [Example 1, 3-quinuclidinyl N-(2-biphenylyl)carbamate monohydrochloride]
[3]
  Ki: 25.9 nM
[4]
  Ki: 0.94 nM
[4]; ratio of Ki M2 to Ki M3
  M2/M3: 27.6
[5]; [10]
  Bronchospasm Test ID50 (mg/kg i.v.): 0.0045 mg/kg i.v.

## C[N+]12CCC(CC1)C(OC(=O)Nc1ccccc1-c1ccccc1)C2.[I-] (centres unmarked) [Example 3, 3-[[N-(2-biphenylyl)carbamoyl]oxy]-1-methylquinuclidinium iodide]
[3]
  Ki: 14.4 nM
[4]
  Ki: 0.56 nM
[4]; ratio of Ki M2 to Ki M3
  M2/M3: 25.7
[5]; [10]
  Bronchospasm Test ID50 (mg/kg i.v.): 0.0038 mg/kg i.v.

## Cl.O=C(Nc1ccccc1-c1ccccc1)OC12CCN(CC1)CC2 [Example 4, 4-quinuclidinyl N-(2-biphenylyl)carbamate monohydrochloride]
[3]
  Ki: 5.89 nM
[4]
  Ki: 0.39 nM
  M2/M3: 15.2
[5]; in vivo, iv
  Bronchospasm Test ID50 (mg/kg i.v.): 0.0082 mg/kg i.v.
[1]; in vivo, iv
  Rhythmic Bladder Contraction Test ED30 (mg/kg i.v.): 0.014 mg/kg i.v.
[2]; in vivo, iv
  Salivary Secretion Test ED50 (mg/kg i.v.): 0.10 mg/kg i.v.

## C[N+]1(C)CCC(OC(=O)Nc2ccccc2-c2ccccc2)CC1.[I-] [Example 7, 4-[[N-(2-biphenylyl)carbamoyl]oxy]-1,1-dimethylpiperidinium iodide]
[3]; [8]
  Ki: 14.7 nM
[4]; [9]
  Ki: 0.57 nM
[4]; ratio of Ki M2 to Ki M3
  M2/M3: 25.8
[5]; in vivo, iv
  Bronchospasm Test ID50 (mg/kg i.v.): 0.0054 mg/kg i.v.

## O=C(Nc1ccccc1-c1ccccc1)OC1CCN(Cc2cccc(O)c2)CC1.O=C(O)C(=O)O [Example 15, 1-(3-Hydroxybenzyl)-4-piperidyl N-(2-biphenylyl)carbamate monooxalate]
[1]; [6]
  Rhythmic Bladder Contraction Test ED30 (mg/kg i.v.): 0.058 mg/kg i.v.
[2]; [7]
  Salivary Secretion Test ED50 (mg/kg i.v.): 0.36 mg/kg i.v.

## CCN(CC)CC#CCOC(=O)C(O)(c1ccccc1)C1CCCCC1 (centres unmarked) [Oxybutynin, reference compound]
[1]; [6]
  Rhythmic Bladder Contraction Test ED30 (mg/kg i.v.): 0.24 mg/kg i.v.
[2]; [7]
  Salivary Secretion Test ED50 (mg/kg i.v.): 0.18 mg/kg i.v.

Source: patent EP0747355A1, “NOVEL CARBAMATE DERIVATIVE AND MEDICINAL COMPOSITION CONTAINING THE SAME” (priority 1994, dated 1995)
